ChEMBL document CHEMBL4837262, “Development and Profiling of Inverse Agonist Tools for the Neuroprotective Transcription Factor Nurr1” (J Med Chem, 2021)
Calls of active or inactive are those of the source. The rule behind the calls is not given here.

Assays:
[1] = molecular target: T1, Nuclear receptor subfamily 4 group A member 2 (Homo sapiens, UniProt P43354); assay: Inverse agonist activity at Gal4-fused human Nurr1 LBD expressed in HEK293T cells co-expressing firefly luciferase assessed as luciferase activity by hybrid reporter gene assay; type: cell-based
T1 sequence (P43354 whole entry, the tested form may be a part): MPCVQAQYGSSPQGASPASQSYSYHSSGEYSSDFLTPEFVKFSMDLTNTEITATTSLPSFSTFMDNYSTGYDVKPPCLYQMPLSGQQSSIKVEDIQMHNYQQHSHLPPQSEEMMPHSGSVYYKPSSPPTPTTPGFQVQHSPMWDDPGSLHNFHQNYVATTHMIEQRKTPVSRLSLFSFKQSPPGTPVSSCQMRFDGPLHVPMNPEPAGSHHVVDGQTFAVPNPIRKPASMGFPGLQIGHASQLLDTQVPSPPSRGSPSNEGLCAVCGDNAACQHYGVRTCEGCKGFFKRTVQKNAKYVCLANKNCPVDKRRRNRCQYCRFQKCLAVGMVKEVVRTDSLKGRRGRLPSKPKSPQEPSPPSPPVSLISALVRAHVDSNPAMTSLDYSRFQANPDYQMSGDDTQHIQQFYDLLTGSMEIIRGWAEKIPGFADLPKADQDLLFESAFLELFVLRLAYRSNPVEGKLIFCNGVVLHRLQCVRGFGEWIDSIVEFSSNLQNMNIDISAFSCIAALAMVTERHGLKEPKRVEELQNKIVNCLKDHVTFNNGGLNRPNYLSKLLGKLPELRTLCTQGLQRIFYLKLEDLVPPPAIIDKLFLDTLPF

[2] = molecular target: T1, Nuclear receptor subfamily 4 group A member 2; assay: Agonist activity at Gal4-fused human Nurr1 LBD expressed in HEK293T cells co-expressing firefly luciferase assessed as luciferase activity in presence of 5-(Pyridin-3-yl)-1-methylindole-3-carboxylic Acid Methyl Ester by hybrid reporter gene assay; type: cell-based
[3] = molecular target: T1, Nuclear receptor subfamily 4 group A member 2; assay: Agonist activity at Gal4-fused human Nurr1 LBD expressed in HEK293T cells co-expressing firefly luciferase assessed as luciferase activity by hybrid reporter gene assay; type: cell-based
T98G [4] = assay: Cytotoxicity against human T98G cells assessed as reduction in cell viability upto 100 uM after 24 hrs by WST-1 assay; type: cell-based
HEK-293T [5] = assay: Cytotoxicity against human HEK293T cells assessed as reduction in cell viability upto 100 uM after 24 hrs by WST-1 assay; type: cell-based
[6] = molecular target: T1, Nuclear receptor subfamily 4 group A member 2; assay: Agonist activity at Gal4-fused human Nurr1 LBD expressed in HEK293T cells co-expressing firefly luciferase assessed as fold increase in luciferase activity by hybrid reporter gene assay relative to control; type: cell-based; conditions: filed as agonist
[7] = molecular target: T1, Nuclear receptor subfamily 4 group A member 2; assay: Inverse agonist activity at human Nurr1 LBD assessed as inhibition of NCoA6-Nurr1 interaction after 2 hrs by HTRF assay
[8] = molecular target: T1, Nuclear receptor subfamily 4 group A member 2; assay: Inverse agonist activity at human Nurr1 LBD assessed as inhibition of SRC1-Nurr1 interaction after 2 hrs by HTRF assay
[9] = molecular target: T1, Nuclear receptor subfamily 4 group A member 2; assay: Inverse agonist activity at Gal4-fused human Nurr1 LBD expressed in HEK293T cells co-expressing firefly luciferase assessed as luciferase activity in presence of AQ by hybrid reporter gene assay; type: cell-based
[10] = molecular target: T1, Nuclear receptor subfamily 4 group A member 2; assay: Inverse agonist activity at human Nurr1 LBD assessed as displacement of NCoR1 from Nurr1 after 2 hrs by HTRF assay
T98G [11] = assay: Cytotoxicity against human T98G cells assessed as reduction in cell viability at >30 uM after 24 hrs by WST-1 assay; type: cell-based
[12] = molecular target: T1, Nuclear receptor subfamily 4 group A member 2; assay: Inverse agonist activity at human Nurr1 LBD assessed as inhibition of CBP1-Nurr1 interaction after 2 hrs by HTRF assay
[13] = molecular target: T1, Nuclear receptor subfamily 4 group A member 2; assay: Inverse agonist activity at Gal4-fused human Nurr1 monomer response element NBRE expressed in HEK293T cells co-expressing firefly luciferase assessed as luciferase activity by hybrid reporter gene assay; type: cell-based
[14] = molecular target: T1, Nuclear receptor subfamily 4 group A member 2; assay: Inverse agonist activity at human Nurr1 LBD assessed as inhibition of heterodimerization of Nurr1 with RXRalpha after 2 hrs by HTRF assay
[15] = molecular target: T1, Nuclear receptor subfamily 4 group A member 2; assay: Inverse agonist activity at human Nurr1 LBD assessed as displacement of NCoR2 from Nurr1 after 2 hrs by HTRF assay
[16] = molecular target: T1, Nuclear receptor subfamily 4 group A member 2; assay: Inverse agonist activity at human Nurr1 LBD assessed as inhibition of Nurr1 homodimerization after 2 hrs by HTRF assay; conditions: filed as inverse agonist
HEK-293T [17] = assay: Cytotoxicity against human HEK293T cells assessed as reduction in cell viability at >30 uM after 24 hrs by WST-1 assay; type: cell-based

| SMILES | IC50 ([1]; read-out: IC50) [µM] | IC50 ([1]; hek293t) | also measured |
| --- | --- | --- | --- |
| CCN(CC)Cc1cc(Nc2ccnc3cc(Cl)ccc23)ccc1O [AMODIAQUINE] |  |  | EC50 [2]: 82 µM; EC50 [3]: 41 µM |
| CC(=O)c1c[nH]c2ccccc12 |  | Not Active |  |
| COC(=O)c1c(C)[nH]c2ccccc12 | 53 |  |  |
| COC(=O)c1cn(C)c2ccc(-c3ccccc3)cc12 |  |  | Activity (T98G [4]): Non-Toxic; Activity (HEK-293T [5]): Non-Toxic |
| COC(=O)c1c[nH]c2ccc(Br)cc12 | 15 |  |  |
| CC(C)(C)OC(=O)c1c[nH]c2ccccc12 |  | Not Active |  |
| CCC(=O)c1c[nH]c2ccccc12 |  | Not Active |  |
| O=C(Oc1ccccc1)c1c[nH]c2ccccc12 |  |  | fold change (FC) [6]: 1.93; EC50 [3]: 11 µM |
| COC(=O)c1cn(Cc2ccccc2)c2ccccc12 |  | Not Active |  |
| COC(=O)c1c[nH]c2ccccc12 | 48 |  |  |
| COC(=O)c1cn(-c2ccccc2)c2ccccc12 |  |  | fold change (FC) [6]: 1.9; EC50 [3]: 81 µM |
| CCOC(=O)c1c[nH]c2ccccc12 |  | Not Active |  |
| O=Cc1c[nH]c2ccccc12 [3-FORMYLINDOLE] |  | Not Active |  |
| COC(=O)c1c[nH]c2ccc(OC)cc12 | 23 |  |  |
| COC(=O)c1c[nH]c2cccc(Cl)c12 | 55 |  |  |
| O=C(O)c1c[nH]c2ccccc12 |  | Not Active |  |
| COC(=O)c1c[nH]c2c(OC)cccc12 |  | Not Active |  |
| COC(=O)c1c[nH]c2cccc(C)c12 |  | Not Active |  |
| COC(=O)c1c[nH]c2ccc(Cl)cc12 | 24 |  |  |
| COC(=O)c1c(Cl)[nH]c2ccccc12 | 34 |  |  |
| COC(=O)c1c[nH]c2c(Cl)cccc12 | 19 |  |  |
| CCn1cc(C(=O)OC)c2ccccc21 | 31 |  |  |

More lines, main results first:

| IC50 ([1]; read-out: IC50) [µM] | IC50 ([1]; hek293t) | SMILES | also measured |
| --- | --- | --- | --- |
| 35 |  | COC(=O)c1c[nH]c2c(C)cccc12 |  |
|  | Not Active | COC(=O)c1c[nH]c2ccc(Cc3ccccc3)cc12 |  |
| > 30 |  | CN(C)C(=O)c1cn(C)c2ccc(-c3ccccc3)cc12 |  |
| 57 |  | COC(=O)c1c[nH]c2cc(C)ccc12 |  |
| 21 |  | COC(=O)c1cn(C)c2ccccc12 |  |
| 3.8 |  | COC(=O)c1cn(C)c2ccc(-c3cccnc3)cc12 | Activity [7]: inactive; Activity [8]: inactive; IC50 [9]: 3.7 µM; IC50 [10]: 57 µM; Activity (T98G [11]): Toxic; Activity [12]: inactive; IC50 [13]: 10 µM; Activity [14]: inactive; IC50 [15]: 29 µM; Activity [16]: Dose-Dependent Effect; Activity (HEK-293T [17]): Toxic |
|  | Not Active | CCNC(=O)c1cn(C)c2ccc(-c3ccccc3)cc12 |  |
| 11 |  | COC(=O)c1cn(C)c2c(Cl)cc(-c3cccnc3)cc12 |  |
| 20 |  | COC(=O)c1c[nH]c2ccc(C)cc12 |  |
| 14 |  | CNC(=O)c1cn(C)c2ccc(-c3ccccc3)cc12 |  |
